In brackets after ≈: the same amount, converted by molar mass. Like-named read-outs stand apart in the source and are kept apart here.
Assays:
[1] = system: Streptococcus beta-haemolyticus; assay: in vitro antibacterial activity (MIC) against hospital strains; type: cell-based
[2] = solubility in water; type: physicochemical; details: parts of water needed to dissolve the salt
[3] = solubility in ethanol
[4] = Streptococcus beta-haemolyticus strain B (hospital strain)
[5] = Streptococcus beta-haemolyticus strain C (hospital strain)
[6] = Streptococcus beta-haemolyticus strain D (hospital strain)
[7] = Streptococcus beta-haemolyticus strain A (hospital strain)

## CC[C@H]1OC(=O)[C@H](C)[C@@H](O[C@H]2C[C@@](C)(OC)[C@@H](O)[C@H](C)O2)[C@H](C)[C@@H](O[C@@H]2O[C@H](C)C[C@H](N(C)C)[C@H]2O)[C@](C)(O)C[C@@H](C)C(=O)[C@H](C)[C@@H](O)[C@]1(C)O [Erythromycin acetylsalicylate]
[1]; [4]
  MIC: 0.6 µg⁻¹ mL⁻¹
[1]; [5]
  MIC: 0.3 µg⁻¹ mL⁻¹
[1]; [6]
  MIC: 0.075 µg⁻¹ mL⁻¹
[2]
  soluble in p. water: 100 p.

## CC[C@H]1OC(=O)[C@H](C)[C@@H](O[C@H]2C[C@@](C)(OC)[C@@H](O)[C@H](C)O2)[C@H](C)[C@@H](O[C@@H]2O[C@H](C)C[C@H](N(C)C)[C@H]2O)[C@](C)(O)C[C@@H](C)C(=O)[C@H](C)[C@@H](O)[C@]1(C)O [Erythromycin base, erythromycin A, reference compound]
[1]; [7]
  MIC: 5 µg⁻¹ mL⁻¹
[1]; [6]
  MIC: 0.6 µg⁻¹ mL⁻¹
[1]; Streptococcus, Streptococcus beta-haemolyticus strain C (hospital strain)
  MIC: 0.6 µg/mL (≈ 0.818 µM)

## CCC(=O)O[C@H]1[C@H](O[C@@H]2[C@@H](C)[C@H](O[C@H]3C[C@@](C)(OC)[C@@H](O)[C@H](C)O3)[C@@H](C)C(=O)O[C@H](CC)[C@@](C)(O)[C@H](O)[C@@H](C)C(=O)[C@H](C)C[C@@]2(C)O)O[C@H](C)C[C@@H]1N(C)C [Propionylerythromycin (+)-alpha-mercapto-propionyl-glycinate] [Propionylerythromycin (+)-alpha-mercaptopropionyl-glycinate]
[1]; [7]
  MIC: 5 µg⁻¹ mL⁻¹
[1]; [4]
  MIC: 0.3 µg⁻¹ mL⁻¹
[1]; [5]
  MIC: 0.3 µg⁻¹ mL⁻¹
[1]; [6]
  MIC: 0.3 µg⁻¹ mL⁻¹
[2]
  soluble in p. water: 90 p.
[3]
  soluble in p. ethanol 95% v/v: 2 p.

## CCC(=O)O[C@H]1[C@H](O[C@@H]2[C@@H](C)[C@H](O[C@H]3C[C@@](C)(OC)[C@@H](O)[C@H](C)O3)[C@@H](C)C(=O)O[C@H](CC)[C@@](C)(O)[C@H](O)[C@@H](C)C(=O)[C@H](C)C[C@@]2(C)O)O[C@H](C)C[C@@H]1N(C)C [Propionylerythromycin acetylsalicylate]
[1]; [7]
  MIC: 5 µg⁻¹ mL⁻¹
[1]; [4]
  MIC: 0.3 µg⁻¹ mL⁻¹
[1]; [5]
  MIC: 0.3 µg⁻¹ mL⁻¹
[1]; [6]
  MIC: 0.3 µg⁻¹ mL⁻¹
[2]
  soluble in p. water: 300 p.
[3]
  soluble in p. ethanol 95% v/v: 4 p.

## CCC(=O)O[C@H]1[C@H](O[C@@H]2[C@@H](C)[C@H](O[C@H]3C[C@@](C)(OC)[C@@H](O)[C@H](C)O3)[C@@H](C)C(=O)O[C@H](CC)[C@@](C)(O)[C@H](O)[C@@H](C)C(=O)[C@H](C)C[C@@]2(C)O)O[C@H](C)C[C@@H]1N(C)C [Propionylerythromycin base, propionic ester (2'-.propanoate) of erythromycin A, reference compound]
[1]; Streptococcus, Streptococcus beta-haemolyticus strain A (hospital strain), read-out: MIC
  MIC: 2.5 µg/mL (≈ 3.16 µM)
[1]; Streptococcus, Streptococcus beta-haemolyticus strain B (hospital strain), read-out: MIC
  MIC: 0.6 µg/mL (≈ 0.759 µM)
[1]; Streptococcus, Streptococcus beta-haemolyticus strain C (hospital strain), read-out: MIC
  MIC: 0.6 µg/mL (≈ 0.759 µM)
[1]; Streptococcus, Streptococcus beta-haemolyticus strain D (hospital strain), read-out: MIC
  MIC: 0.6 µg/mL (≈ 0.759 µM)

## CCC(=O)O[C@H]1[C@H](O[C@@H]2[C@@H](C)[C@H](O[C@H]3C[C@@](C)(OC)[C@@H](O)[C@H](C)O3)[C@@H](C)C(=O)O[C@H](CC)[C@@](C)(O)[C@H](O)[C@@H](C)C(=O)[C@H](C)C[C@@]2(C)O)O[C@H](C)C[C@@H]1N(C)C [propionylerythromycin (-)-alpha-propionyl-glycinate]
[2]
  soluble in p. water: 60 p.
[3]
  soluble in p. ethanol 95% v/v: 2 p.

From patent EP0096013A1, “Salts of erythromycin showing a combined therapeutic activity, process for their preparation and pharmaceutical formulations containing them” (NUOVO CONSORZIO SANITARIO NAZIONALE, priority 1982, dated 1983)
